Data from patent US10975037B2 (priority 2018, dated 2021).
Where two headings read alike, the source gives them in different places. Marks after values point to notes of the source that are not given here.

Columns and labels:
full-length human RORγt = full-length human RORγt (Homo sapiens (Human), UniProt P51449); experiment: RORγt (full-length human) reporter assay, conditions A or B, HEK293T cells; type: cell-based; conditions: for inhibition at 6 µM: read-out: RORγt (FL) Reporter Assay A or B, % inhibition @ 6 μM, 6 μM compound concentration
Sequence of full-length human RORγt (P51449 other isoform, or with tags, fused parts or gaps): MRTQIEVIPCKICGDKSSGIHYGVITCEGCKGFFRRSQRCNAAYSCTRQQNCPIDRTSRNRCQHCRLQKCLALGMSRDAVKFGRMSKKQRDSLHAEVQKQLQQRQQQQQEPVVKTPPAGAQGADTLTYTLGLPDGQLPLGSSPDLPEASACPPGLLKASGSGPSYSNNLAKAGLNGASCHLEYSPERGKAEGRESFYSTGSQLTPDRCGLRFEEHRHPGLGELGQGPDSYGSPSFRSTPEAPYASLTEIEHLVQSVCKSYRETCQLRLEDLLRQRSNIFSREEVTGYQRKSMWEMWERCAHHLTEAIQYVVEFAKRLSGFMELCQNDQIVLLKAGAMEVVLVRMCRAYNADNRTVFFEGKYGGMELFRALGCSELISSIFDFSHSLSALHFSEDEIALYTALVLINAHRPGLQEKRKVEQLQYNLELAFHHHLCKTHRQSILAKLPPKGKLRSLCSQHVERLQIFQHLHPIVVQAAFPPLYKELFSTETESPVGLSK
How it was run: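 Dual-luciferase read-out was taken after an overnight (16–20 h) compound exposure. Firefly data were scaled between DMSO-only and saturating reference compound, Renilla-normalized, then plotted against concentration for IC50.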

[1] = biological target: human RORγt ligand binding domain (RORγt LBD) (Homo sapiens (Human), UniProt P51449); experiment: RORγt ThermoFluor® assay (thermal shift binding)
Sequence of human RORγt ligand binding domain (RORγt LBD) (P51449 other isoform, or with tags, fused parts or gaps): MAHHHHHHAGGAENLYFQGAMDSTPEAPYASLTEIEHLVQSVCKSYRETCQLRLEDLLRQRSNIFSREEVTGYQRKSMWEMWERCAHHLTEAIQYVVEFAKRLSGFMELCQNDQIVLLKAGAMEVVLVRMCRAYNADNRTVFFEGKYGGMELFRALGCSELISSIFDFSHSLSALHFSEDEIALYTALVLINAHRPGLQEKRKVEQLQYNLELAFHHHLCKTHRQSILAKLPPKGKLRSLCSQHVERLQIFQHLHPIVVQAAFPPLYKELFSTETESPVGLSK
How it was run: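 Thermal shift with 0.065 mg/mL RORγt LBD and 60 μM 1,8-ANS in 100 mM Hepes pH 7.0, 10 mM NaCl, 2.5 mM GSH, 0.002% Tween-20.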

[2] = tested on: IL-17 production by CD4 T cells under conditions which favor Th17 differentiation; experiment: Human Th17 assay (IL-17 production by CD4 T cells); type: cell-based
Procedure: The human Th17 assay tests the effect of RORγt modulatory compounds on IL-17 production by CD4 T cells under conditions which favor Th17 differentiation. Total CD4^+ T cells were isolated from the peripheral blood mononuclear cells (PBMC) of healthy donors using a CD4^+ T cell isolation kit II, following the manufacturer's instructions (Miltenyi Biotec). […] 50 μL of compound at titrated concentrations in DMSO were added into each well at final DMSO concentration at 0.2%. Cells were incubated for 1 hour, then 50 μL of Th17 cell differentiation medium was added to each well. […] Cells were cultured at 37° C. and 5% CO2 for 3 days. Supernatants were collected and the accumulated IL-17 in culture was measured by using MULTI-SPOT® Cytokine Plate following manufacture's instruction (Meso Scale Discovery). The plate was read using Sector Imager 6000, and IL-17 concentration was extrapolated from the standard curve. The IC50s were determined by GraphPad.

RORγT = RORγT (Mus musculus (Mouse), UniProt P51450); conditions: mice; cited from earlier work
Sequence of RORγT (P51450 other isoform, or with tags, fused parts or gaps): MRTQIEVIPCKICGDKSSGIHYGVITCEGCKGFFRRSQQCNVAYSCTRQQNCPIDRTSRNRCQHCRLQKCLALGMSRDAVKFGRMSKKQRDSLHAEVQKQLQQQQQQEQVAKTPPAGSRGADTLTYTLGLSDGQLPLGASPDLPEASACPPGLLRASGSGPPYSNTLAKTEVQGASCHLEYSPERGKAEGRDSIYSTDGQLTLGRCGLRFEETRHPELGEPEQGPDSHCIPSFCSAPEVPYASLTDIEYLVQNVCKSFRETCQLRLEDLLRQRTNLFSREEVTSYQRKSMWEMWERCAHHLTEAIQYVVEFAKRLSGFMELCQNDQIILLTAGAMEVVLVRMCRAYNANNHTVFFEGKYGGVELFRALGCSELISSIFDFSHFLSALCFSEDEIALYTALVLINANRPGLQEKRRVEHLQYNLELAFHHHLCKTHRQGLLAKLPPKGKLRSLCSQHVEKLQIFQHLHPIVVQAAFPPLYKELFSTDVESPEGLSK

[3] = HEK-293T, 3 μM compound concentration (footnote *), read-out: RORγt (FL) Reporter Assay A or B, % inhibition
[4] = RORγt (FL) Reporter Assay A or B, IC50, HEK293T cells
[5] = read-out: ThermoFluor® Assay, Kd
[6] = Homo sapiens, CD4+ T; read-out: Human Th17 Assay, IC50
[7] = HEK-293T, 0.67 μM compound concentration (footnote ****), read-out: RORγt (FL) Reporter Assay A or B, % inhibition
[8] = HEK-293T, read-out: RORγt (FL) Reporter Assay A or B, % inhibition

| SMILES | IC50 (full-length human RORγt; [4]) | Kd [1, 5] | IC50 [2, 6] | other results |
| --- | --- | --- | --- | --- |
| CCn1nc(C(=O)NC[C@]2(O)CC[C@@H](S(N)(=O)=O)CC2)c(Cl)c1-c1ccc(CC(C)(C)C(F)(F)F)cc1OC(F)F [Example 62, 4-Chloro-5-(2-(difluoromethoxy)-4-(3,3,3-trifluoro-2,2-dimethylpropyl)phenyl)-1-ethyl-N-(((1s,4s)-1-hydroxy-4-sulfamoylcyclohexyl)methyl)-1H-pyrazole-3-carboxamide] | 0.012 µM | 0.00078 µM | 0.036 µM | inhibition at 3 µM (full-length human RORγt; [3]): 120% |
| CCn1nc(C(=O)NC[C@]2(O)CC[C@@H](S(C)(=O)=O)CC2)c(C)c1-c1ccc(CCCC(F)(F)F)cc1OC(F)F [Example 79, 5-(2-(Difluoromethoxy)-4-(4,4,4-trifluorobutyl)phenyl)-1-ethyl-N-(((1s,4s)-1-hydroxy-4-(methylsulfonyl)cyclohexyl)methyl)-4-methyl-1H-pyrazole-3-carboxamide] | 0.0087 µM | 0.002 µM | 0.058 µM | inhibition at 0.67 µM (full-length human RORγt; [7]): 99% |
| CCn1nc(C(=O)NC[C@]2(O)CC[C@@H](S(C)(=O)=O)CC2)c(Cl)c1-c1ccc(CC(C(F)(F)F)C(F)(F)F)cc1OC [Example 85, 4-Chloro-1-ethyl-N-(((1s,4s)-1-hydroxy-4-(methylsulfonyl)cyclohexyl)methyl)-5-(2-methoxy-4-(3,3,3-trifluoro-2-(trifluoromethyl)propyl)phenyl)-1H-pyrazole-3-carboxamide] | 0.0026 µM | 0.00043 µM | 0.0093 µM | inhibition at 0.67 µM (full-length human RORγt; [7]): 103% |
| CCn1nc(C(=O)NC[C@]2(CO)CC[C@@H](S(C)(=O)=O)CC2)c(Cl)c1-c1ccc(CC(C)C(F)(F)F)cc1OC (stereo partly shown) [Example 92, 4-Chloro-1-ethyl-N-(((1s*,4s*)-1-(hydroxymethyl)-4-(methylsulfonyl)cyclohexyl)methyl)-5-(2-methoxy-4-(3,3,3-trifluoro-2-methylpropyl)phenyl)-1H-pyrazole-3-carboxamide] | 0.066 µM | 0.039 µM | 0.27 µM | inhibition at 0.67 µM (full-length human RORγt; [8]): 87% |
| COc1cc(N[C@H](C)C(F)(F)F)ccc1-c1c(Cl)c(C(=O)NC[C@H]2CC[C@H](S(C)(=O)=O)CC2)nn1CCC#N [Example 129, 4-Chloro-1-(2-cyanoethyl)-5-(2-methoxy-4-(((R)-1,1,1-trifluoropropan-2-yl)amino)phenyl)-N-(((1r,4R)-4-(methylsulfonyl)cyclohexyl)methyl)-1H-pyrazole-3-carboxamide] | 0.81 µM | – | 2.3 µM | inhibition at 6 µM (full-length human RORγt; HEK-293T): 102%; Kd ([1]; ThermoFluor® Assay, Kd): 0.072 µM |
| CCn1nc(C(=O)NC[C@]2(O)CC[C@@H](S(C)(=O)=O)CC2)c(Cl)c1-c1ccc(CC(C)(C)C(F)(F)F)cc1OC(F)F [Example 132, 4-Chloro-5-(2-(difluoromethoxy)-4-(3,3,3-trifluoro-2,2-dimethylpropyl)phenyl)-1-ethyl-N-(((1s,4s)-1-hydroxy-4-(methylsulfonyl)cyclohexyl)methyl)-1H-pyrazole-3-carboxamide] | 0.0081 µM | 0.00045 µM | – | inhibition at 2 µM (full-length human RORγt; [8]): 99%; IC50 ([2]; Homo sapiens, CD4+ T, read-out: Human Th17 Assay, IC50): 0.006 µM |
| CCn1nc(C(=O)NC[C@]2(O)CC[C@@H](S(C)(=O)=O)CC2)c(C)c1-c1ccc(CC(C)(C)C(F)(F)F)cc1OC(F)F [Example 143, 5-(2-(Difluoromethoxy)-4-(3,3,3-trifluoro-2,2-dimethylpropyl)phenyl)-1-ethyl-N-(((1s,4s)-1-hydroxy-4-(methylsulfonyl)cyclohexyl)methyl)-4-methyl-1H-pyrazole-3-carboxamide] | 0.0073 µM | 0.00037 µM | 0.01 µM | inhibition at […] (full-length human RORγt; HEK-293T, 0.22 μM compound concentration (footnote *******), read-out: RORγt (FL) Reporter Assay A or B, % inhibition): 101% |
| Cc1c(C(=O)NC[C@]2(O)CC[C@@H](S(C)(=O)=O)CC2)nn(C)c1-c1ccc(CCCC(F)(F)F)cc1OC(F)F [Example 161, 5-(2-(Difluoromethoxy)-4-(4,4,4-trifluorobutyl)phenyl)-N-(((1s,4s)-1-hydroxy-4-(methylsulfonyl)cyclohexyl)methyl)-1,4-dimethyl-1H-pyrazole-3-carboxamide] | 0.0078 µM | 0.032 µM | 0.2 µM | inhibition at 3 µM (full-length human RORγt; [3]): 81% |
| CCn1nc(C(=O)NC[C@H]2CC[C@H](S(C)(=O)=O)CC2)c(Cl)c1-c1ccc(CC(C)(C)C(F)(F)F)cc1Cl [Example 165, 4-Chloro-5-(2-chloro-4-(3,3,3-trifluoro-2,2-dimethylpropyl)phenyl)-1-ethyl-N-(((1r,4r)-4-(methylsulfonyl)cyclohexyl)methyl)-1H-pyrazole-3-carboxamide] | 0.008 µM | 0.00045 µM | 0.013 µM | inhibition at 0.07 µM (full-length human RORγt; HEK-293T, 0.07 μM compound concentration (footnote *********), read-out: RORγt (FL) Reporter Assay A or B, % inhibition): 52% |
| COCCn1nc(C(=O)NC[C@H]2CC[C@H](S(C)(=O)=O)CC2)c(Cl)c1-c1ccc(N[C@H](C)C(F)(F)F)cc1OC [Example 187, 4-Chloro-5-(2-methoxy-4-(((R)-1,1,1-trifluoropropan-2-yl)amino)phenyl)-1-(2-methoxyethyl)-N-(((1r,4R)-4-(methylsulfonyl)cyclohexyl)methyl)-1H-pyrazole-3-carboxamide] | 0.11 µM | – | 0.054 µM | inhibition at 6 µM (full-length human RORγt; HEK-293T): 104%; Kd ([1]; ThermoFluor® Assay, Kd): 0.018 µM |
| CCn1nc(C(=O)NC[C@]2(O)CC[C@@H](S(C)(=O)=O)CC2)c(Cl)c1-c1ccc(CC(C)C(F)(F)F)cc1OC(F)(F)F (stereo partly shown) [Example 191, 4-Chloro-1-ethyl-N-(((1s,4s)-1-hydroxy-4-(methylsulfonyl)cyclohexyl)methyl)-5-(4-(3,3,3-trifluoro-2-methylpropyl)-2-(trifluoromethoxy)phenyl)-1H-pyrazole-3-carboxamide] | 0.022 µM | 0.0015 µM | 0.063 µM | inhibition at 0.67 µM (full-length human RORγt; [7]): 69% |
| COc1cc(N[C@H](C)C(F)(F)F)ccc1-c1c(Cl)c(C(=O)NC[C@H]2CC[C@H](S(C)(=O)=O)CC2)nn1CCO [Example 201, 4-Chloro-1-(2-hydroxyethyl)-5-(2-methoxy-4-(((R)-1,1,1-trifluoropropan-2-yl)amino)phenyl)-N-(((r,4R)-4-(methylsulfonyl)cyclohexyl)methyl)-1H-pyrazole-3-carboxamide] | 1.6 µM | 0.2 µM | 2.8 µM | inhibition at 6 µM (full-length human RORγt; HEK-293T): 82% |
| CCn1nc(C(=O)NC[C@H]2CC[C@H](S(C)(=O)=O)CC2)c(F)c1-c1ccc(N[C@H](C)C(F)(F)F)cc1OC [Example 203, 1-Ethyl-4-fluoro-5-(2-methoxy-4-(((R)-1,1,1-trifluoropropan-2-yl)amino)phenyl)-N-(((1r,4R)-4-(methylsulfonyl)cyclohexyl)methyl)-1H-pyrazole-3-carboxamide] | 0.13 µM | 0.017 µM | 0.039 µM | inhibition at 6 µM (full-length human RORγt; HEK-293T): 105% |
| CCn1nc(C(=O)NC[C@H]2CC[C@H](S(C)(=O)=O)CC2)c(Cl)c1-c1ccc(CCC(F)(F)F)cc1OC(F)F [Example 222, 4-Chloro-5-(2-(difluoromethoxy)-4-(3,3,3-trifluoropropyl)phenyl)-1-ethyl-N-(((1r,4r)-4-(methylsulfonyl)cyclohexyl)methyl)-1H-pyrazole-3-carboxamide] | – | 0.00075 µM | – | RORγt (FL) Reporter Assay A or B, % inhibition (full-length human RORγt; 3 μM compound concentration (footnote *)): 101* %; IC50 (full-length human RORγt; HEK293T cells, read-out: RORγt (FL) Reporter Assay A or B, IC50): 0.0062 µM; IC50 ([2]; read-out: Human Th17 Assay, IC50): 0.011 µM |
| CCn1nc(C(=O)NC[C@H]2CC[C@H](S(C)(=O)=O)CC2)c(C)c1-c1ccc(CC(C)(C)C(F)(F)F)cc1OC [Example 227, 1-Ethyl-5-(2-methoxy-4-(3,3,3-trifluoro-2,2-dimethylpropyl)phenyl)-4-methyl-N-(((1r,4r)-4-(methylsulfonyl)cyclohexyl)methyl)-1H-pyrazole-3-carboxamide] | 0.009 µM | 0.0011 µM | 0.014 µM | inhibition at 0.67 µM (full-length human RORγt; [7]): 92% |
| CC(=O)Nc1nc(C)c(S(=O)(=O)Nc2ccc(C(O)(C(F)(F)F)C(F)(F)F)cc2)s1 [SR1001] | – | – | – | Th17-dependent learned helplessness (RORγT): reduced Th17-dependent learned helplessness |
